Results published in US20170129919A1, “CYCLIC DIPEPTIDE-CONTAINING COMPOSITION” (Suntory Holdings Limited, priority 2014, published 2017).
≈ marks a conversion by molar mass, not a printed value. Like-named read-outs stand apart in the source and are kept apart here.

How the values were obtained:
hyperuricemic mice = assay: Action of lowering serum uric acid levels for hyperuricemic mice (potassium oxonate model); type: in vivo, BALBc mice; conditions: FIG. 2
Description: As to the animals used, male 7-week old BALBc mice were purchased from CLEA Japan, Inc., and subjected to an experiment after a one-week period of conditioning. The animals were bred in a breeding room with air-conditioning facilities (temperature: 23.5°±1.0° C., humidity: 55±10 RH %, the number of ventilation: 12 to 15 times/hour, illuminated: from 7:00 to 19:00 each day). During the period of conditioning, the mice were allowed to take a commercially available feed (CE-2, manufactured by CLEA Japan, Inc.) and distilled water ad libitum.
Oxonic acid is a substance that raises a blood uric acid level by inhibiting a urikase, a metabolic enzyme for uric acid. In view of the above, potassium oxonate (PO) was administered, thereby generating hyperuricemic model animals (see, Planta Med 2009; 75:302-306). Studies were made on the following 6 groups:
In all the groups that include PO administration, PO previously suspended in a 0.5% aqueous CMC-Na solution at 250 mg/kg was administered, and Normal Group was administered with a 0.5% aqueous CMC-Na solution, each being administered intraperitoneally. […] After 2 hours from the administration with PO, the blood was collected from the abdominal vena cava under anesthesia. After blood removal, the liver was harvested. The collected blood was allowed to stand at room temperature for 45 minutes, and centrifuged at 8,000 rpm for 10 minutes to recover sera. Here, the sera and the liver were preserved at −80° C. until the measurements were carried out.
The serum uric acid level was measured using 7180 Clinical Analyzer (manufactured by Hitachi Technologies).
The actions of lowering serum uric acid levels of soybean peptide heat-treated products were studied using hyperuricemic model animals, in the same manner as in Test Example 2. Concretely, the animals used were furnished in the same manner as in Test Example 2, and studies were made on the following 5 groups.
For each of the above-mentioned groups, the administration and the blood collection were carried out in the same manner as in Test Example 2 to measure a serum uric acid level. […]
Here, the heat-treated product of the soybean peptide obtained by dissolving a soybean peptide (Hinute AM, manufactured by FUJI OIL, CO., LTD.) in distilled water in a concentration of 200 mg/mL, heating to 132° C. for 3 hours, and lyophilizing the heated mixture was used. The content of the cyclic dipeptide of the soybean peptide heat-treated product was measured according to LC-MS/MS under the following conditions. […]

Solubility in water = type: physicochemical; conditions: Table 5
Description: Concretely, each compound was added to distilled water (manufactured by Otsuka Pharmaceutical Co., Ltd.) at an ambient temperature (25° C.) so as to have a final concentration of 5 mM, and the mixture was stirred under ultrasonication for 30 minutes to dissolve. […] However, none of the compounds dissolved, so that distilled water was further added thereto so as to have a final concentration of 0.01 mM, and the mixture was stirred under ultrasonication for 30 minutes, but still no compounds dissolved.

xanthine oxidase (XO) [1] = assay: In vitro xanthine oxidase (XO) inhibiting action; type: biochemical; conditions: for IC50: PBS pH 7.5, xanthine substrate, absorbance at 295 nm after 30 minutes, mean±standard error; for Inhibition Rate (%) at Concentration of 100 μM: Table 2, XO inhibition at 100 μM; for action of inhibiting a xanthine oxidase (in words): summary of Tables 1 to 3
Description: The in vitro xanthine oxidase (XO) inhibiting action was studied on 210 kinds of cyclic dipeptides, linear dipeptides Tyr-Gly and Gly-Tyr, and an amino acid Tyr. […] Thereafter, 20 μL of a 250 μM xanthine solution previously dissolved in the PBS was added thereto, and the absorbance after 30 minutes was measured using a spectrophotometer (Synegy HT, manufactured by Bio Tek). The XO inhibition rate (%) at each concentration was calculated by the following calculation formula, to obtain activities of inhibiting XO (IC50 values).

[2] = Stability of standard product in aqueous solution (LC-MS/MS content measurement); type: physicochemical
xanthine oxidase (XO) [3] = target: T1, xanthine oxidase (XO) (Mus musculus, UniProt Q00519); assay: XO activity in the liver and sera of hyperuricemic mice; type: in vivo, BALBc mice; conditions: 100 mg/kg orally
T1 construct: the collected supernatant was subjected to an assay for a xanthine oxidase (XO) activity; from tissue; host or cells: liver homogenate supernatant and serum of male BALBc mice (potassium oxonate hyperuricemia model)
T1 sequence (Q00519 whole entry): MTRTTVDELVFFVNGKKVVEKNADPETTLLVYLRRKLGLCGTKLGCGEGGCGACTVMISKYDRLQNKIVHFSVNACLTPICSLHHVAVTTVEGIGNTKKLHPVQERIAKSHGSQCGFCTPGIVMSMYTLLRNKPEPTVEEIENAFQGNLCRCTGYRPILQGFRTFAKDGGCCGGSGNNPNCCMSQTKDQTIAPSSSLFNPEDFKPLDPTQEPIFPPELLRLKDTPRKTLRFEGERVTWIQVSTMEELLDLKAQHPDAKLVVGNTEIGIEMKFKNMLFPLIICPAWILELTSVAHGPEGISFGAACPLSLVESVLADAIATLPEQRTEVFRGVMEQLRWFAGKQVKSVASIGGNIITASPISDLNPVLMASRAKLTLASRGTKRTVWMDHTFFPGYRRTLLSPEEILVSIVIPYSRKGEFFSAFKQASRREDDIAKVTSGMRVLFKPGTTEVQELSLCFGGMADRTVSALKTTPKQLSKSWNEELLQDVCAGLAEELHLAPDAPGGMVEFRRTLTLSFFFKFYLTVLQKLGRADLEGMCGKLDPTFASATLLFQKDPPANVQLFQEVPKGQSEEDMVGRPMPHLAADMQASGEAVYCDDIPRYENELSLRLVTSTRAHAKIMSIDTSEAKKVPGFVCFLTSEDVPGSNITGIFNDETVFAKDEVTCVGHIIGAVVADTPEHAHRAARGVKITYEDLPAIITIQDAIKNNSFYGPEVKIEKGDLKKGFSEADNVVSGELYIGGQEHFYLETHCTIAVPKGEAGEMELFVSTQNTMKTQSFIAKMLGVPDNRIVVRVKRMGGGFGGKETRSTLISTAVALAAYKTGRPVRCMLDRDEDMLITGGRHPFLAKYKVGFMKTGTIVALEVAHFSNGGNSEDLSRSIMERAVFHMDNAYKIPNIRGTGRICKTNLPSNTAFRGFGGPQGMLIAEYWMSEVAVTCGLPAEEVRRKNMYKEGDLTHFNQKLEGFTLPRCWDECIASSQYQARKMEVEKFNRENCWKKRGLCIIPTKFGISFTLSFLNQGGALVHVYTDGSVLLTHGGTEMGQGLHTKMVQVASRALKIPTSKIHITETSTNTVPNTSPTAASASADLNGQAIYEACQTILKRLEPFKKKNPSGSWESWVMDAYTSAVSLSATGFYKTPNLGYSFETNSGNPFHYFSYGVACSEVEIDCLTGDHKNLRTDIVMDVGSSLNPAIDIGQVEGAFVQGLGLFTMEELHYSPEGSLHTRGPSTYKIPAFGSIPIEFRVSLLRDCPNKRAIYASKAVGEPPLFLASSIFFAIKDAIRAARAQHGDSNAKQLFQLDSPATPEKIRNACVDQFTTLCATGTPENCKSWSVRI
Description: As to the animals used, male 7-week old BALBc mice were purchased from CLEA Japan, Inc., and subjected to an experiment after a one-week period of conditioning. […] During the period of conditioning, the mice were allowed to take a commercially available feed (CE-2, manufactured by CLEA Japan, Inc.) and distilled water ad libitum.
Next, the livers of mice were added to a mixture of an ice-cooled protease inhibitor cocktail and an EDTA-containing tissue protein extraction reagent (T-PER), homogenized, and then centrifuged at 15,000 rpm, at 4° C. for 15 minutes, and the collected supernatant was subjected to an assay for a xanthine oxidase (XO) activity. […]

[4] = distilled water, 25° C., ultrasonication 30 minutes, visual examination, tested at 5, 1, 0.1, 0.01 mM, insoluble = not dissolved at 0.01 mM
[5] = Table 1, read-out: IC50 (Activity of Inhibiting XO of Tyr-Containing Cyclic Dipeptides)

Compound | solubility in water (in words) (Solubility in water) | Solubility in Water (Solubility in water; [4]) | IC50 (xanthine oxidase (XO) [1]; [5]) [µM] | also measured
Oc1ncnc2[nH]ncc12 [Allopurinol, reference compound] | – | – | – | serum uric acid level vs PO Group (hyperuricemic mice; 1 mg/kg orally): significant difference in effects on the PO Group
CCC(C)C1NC(=O)C(Cc2ccc(O)cc2)NC1=O (stereo not drawn) [Cyclo(Ile-Tyr), cycloisoleucyltyrosine] | high solubility in water | 1000 µM (≈ 276 µg/mL) | 86.7 ± 2.8 | –
NCCCC[C@@H]1NC(=O)[C@H](Cc2ccc(O)cc2)NC1=O [Cyclo(Lys-Tyr), cyclolysyltyrosine] | high solubility in water | 5000 µM (≈ 1460 µg/mL) | – | Inhibition Rate (%) at Concentration of 100 μM (xanthine oxidase (XO) [1]): 25.7%
CSCCC1NC(=O)C(Cc2ccc(O)cc2)NC1=O (stereo not drawn) [Cyclo(Met-Tyr), cyclomethionyltyrosine] | high solubility in water | 5000 µM (≈ 1470 µg/mL) | 56.4 ± 2.9 | –
O=C1N[C@@H](Cc2ccc(O)cc2)C(=O)N[C@H]1Cc1ccccc1 [Cyclo(Phe-Tyr), cyclophenylalanyltyrosine] | – | insoluble | 22.2 ± 0.8 | IC50 (xanthine oxidase (XO) [1]; Table 3, read-out: IC50 (Activity of Inhibiting XO of Phe-Containing Cyclic Dipeptides)): 22.2 ± 0.8 µM; action of inhibiting a xanthine oxidase (in words) (xanthine oxidase (XO) [1]): high action of inhibiting a xanthine oxidase
cycloleucyltyrosine [Cyclo(Leu-Tyr)] | – | insoluble | 23.8 ± 5.3 | action of inhibiting a xanthine oxidase (in words) (xanthine oxidase (XO) [1]): high action of inhibiting a xanthine oxidase

Continued, in another order:

solubility in water (in words) (Solubility in water) | Solubility in Water (Solubility in water; [4]) | IC50 (xanthine oxidase (XO) [1]; [5]) [µM] | Compound | also measured
high solubility in water | 1000 µM (≈ 260 µg/mL) | – | O=C1N[C@@H](Cc2ccc(O)cc2)C(=O)N2CCC[C@@H]12 [Cyclo(Pro-Tyr), cycloprolyltyrosine] | Inhibition Rate (%) at Concentration of 100 μM (xanthine oxidase (XO) [1]): 2.3%
– | insoluble | 189 ± 52.5 | O=C1NC(Cc2ccc(O)cc2)C(=O)NC1CO (stereo not drawn) [Cyclo(Ser-Tyr), cycloseryltyrosine] | –
high solubility in water | 1000 µM (≈ 264 µg/mL) | – | C[C@@H](O)[C@@H]1NC(=O)[C@H](Cc2ccc(O)cc2)NC1=O [Cyclo(Thr-Tyr), cyclothreonyltyrosine] | Inhibition Rate (%) at Concentration of 100 μM (xanthine oxidase (XO) [1]): 2.6%
– | – | 77.2 ± 4.7 | O=C1NC(Cc2ccc(O)cc2)C(=O)NC1CS (stereo not drawn) [Cyclo(Tyr-Cys)] | stability of the standard product in an aqueous solution [2]: unstable in an aqueous solution
high solubility in water | – | 49 ± 3 | O=C1CNC(=O)C(Cc2ccc(O)cc2)N1 (stereo not drawn) [Cyclo(Tyr-Gly), cyclotyrosylglycine] | solubility at 30 min (Solubility in water; [4]): 1000 µM (≈ 220 µg/mL); xanthine oxidase activity in the sera (xanthine oxidase (XO) [3]; FIG. 3 lower panel): inhibited; xanthine oxidase activity in the liver (xanthine oxidase (XO) [3]; FIG. 3 upper panel): inhibited; serum uric acid level vs PO Group (hyperuricemic mice; 30 mg/kg orally): significant difference in effects on the PO Group; serum uric acid level vs PO Group (hyperuricemic mice; 100 mg/kg orally): significant difference in effects on the PO Group; action of lowering serum uric acid level, dose dependence (hyperuricemic mice; 10, 30, 100 mg/kg orally, 1 h after PO 250 mg/kg i.p., blood 2 hours after PO): action of lowering a uric acid level in a dose-dependent manner
– | insoluble | 29.5 ± 2.9 | O=C1N[C@@H](Cc2ccc(O)cc2)C(=O)N[C@H]1Cc1ccc(O)cc1 [Cyclo(Tyr-Tyr), cyclotyrosyltyrosine] | action of inhibiting a xanthine oxidase (in words) (xanthine oxidase (XO) [1]): high action of inhibiting a xanthine oxidase
– | insoluble | 79.4 ± 16.1 | CC(C)C1NC(=O)C(Cc2ccc(O)cc2)NC1=O (stereo not drawn) [Cyclo(Val-Tyr), cyclovalyltyrosine] | –
– | insoluble | – | cyclotryptophanyltyrosine [Cyclo(Trp-Tyr)] | Inhibition Rate (%) at Concentration of 100 μM (xanthine oxidase (XO) [1]): 19.1%
